Type in all cases: cell-based
The subject of assay [1] is mouse tauopathy iNs and mouse normal iNs. Nature of the assay: Action potential / excitatory postsynaptic current of iNs in the presence of glutamate receptor antagonists. The following applies: for generation of excitatory postsynaptic current: mouse normal iNs, CNQX and AP-5 administered together; for generation of action potential: mouse tauopathy iNs and mouse normal iNs, AP-5 and CNQX present together. The source says:
FIGS. 1A and 1B show results of confirming, by immunostaining (FIG. 1A) or RT-PCR (FIG. 1B), that iPSCs prepared from a transgenic mouse harboring a P301S mutant human MAPT gene (tauopathy mouse), or its non-transgenic litter (normal mouse) express an undifferentiation marker (Esg1, Eras, Nanog, or SSEA1). In FIG. 1B, tauopathy mouse MEFs (MEF) were used as a negative control, and mouse embryonic stem cells (ESCs) were used as a positive control. […] The inserted drawings show enlarged diagrams of neurites.
Accordingly, these iNs were confirmed to be glutamatergic neurons.

Assay [2] has as its system mouse tauopathy iNs. Nature of the assay: Dot blot of tau oligomer in culture supernatant and cell extracts of mouse tauopathy iNs. The following applies: added at day 5, 48 hours later, final concentration 25 μM. On the procedure:
(§1) FIG. 7 FIGS. 7A and 7B show results of adding AP-5 (final concentration: 25 μM) or CNQX (final concentration: 25 μM) to mouse tauopathy iNs or mouse normal iNs of day 5, preparing a culture supernatant and cell extracts 48 hours later, and analyzing the amounts of tau and a tau oligomer contained in the culture supernatant and the cell extracts by dot blot (FIG. 7A), and the results of quantifying their signals (FIG. 7B). In FIGS. 7C and 7D, AP-5 or CNQX was added to mouse tauopathy iNs of day 7, and a survival rate at day 10 (=the number of live neurons at day 10/the number of live neurons at day 7)×100) was indicated in a graph.
Cells were recovered from the culture system of iNs, suspended in TBS (Tris buffered saline) containing a protease inhibitor and a phosphatase inhibitor, and then ultrasonicated to homogenize the cells. The cell homogenates were centrifuged (13,000×g, 15 min), and the supernatant was recovered as cell extracts. The cell extracts from the iNs of each type were blotted at 1.2 μg protein/spot onto a nitrocellulose membrane (pore size: 0.45 μm, GE Healthcare Japan Corp.).
Also, a medium was recovered from the cell culture system and subjected to low-speed centrifugation (1,000 rpm, 3 min) to precipitate cellular debris. The obtained supernatant was recovered as a culture supernatant. A 500 μl aliquot of each culture supernatant was transferred to a tube with an ultrafiltration filter (Vivaspin, molecular weight cutoff: 10 kD, GE Healthcare Japan Corp.) and concentrated to 50 μl. 2 μl of each concentrated sample was blotted onto the nitrocellulose membrane.
The nitrocellulose membrane obtained by the method was treated with various tau antibodies according to a standard method, followed by detection (Western Lightning Plus-ECL, PerkinElmer, Inc.) and signal quantification (ImageQuant LAS4000, GE Healthcare Japan Corp.). Tau 12, Tau 5, and TOC1 antibodies were used a human tau-specific antibody, an antibody recognizing human tau and mouse tau, and a tau oligomer-specific antibody, respectively. In Examples of the present application, the TOC1 antibody (Non-Patent Document 13) used was provided by Dr. Nicholas Kanaan from Department of Translational Science and Molecular Medicine, College of Human Medicine, Michigan State University (USA).
(§2) AP-5 or CNQX was added to the culture system of mouse tauopathy iNs of day 5. 48 hours later, a culture supernatant and cell extracts were prepared therefrom, and the amount of a tau oligomer, the amount of human tau, and the total amount of tau were analyzed by dot blot (FIGS. 7A and 7B). Also, AP-5 or CNQX was added to the culture system of mouse tauopathy iNs of day 7. Three days later, a cell survival rate was calculated (FIGS. 7C and 7D).

Assay [3] has as its system mouse tauopathy iNs. As to the kind of experiment: Cell survival rate of mouse tauopathy iNs. The following applies: added at day 7, survival at day 10. On the procedure:
as §1, §2

Assay [4] relates to human tauopathy iNs. As to the kind of experiment: Cell survival rate of human tauopathy iNs. As to conditions: added at day 16, survival at day 21. The source says:
FIGS. 10A and 10B show results of measuring change in intracellular calcium concentration between before and after electric stimulation by use of a calcium imaging method in human tauopathy iNs or human normal iNs of day 12 (FIG. 10A, n=6). The arrows shown in the abscissa represent time points at which the cells were given electric stimulation. The ordinate (ΔF/F) depicts change in the fluorescence intensity of a calcium indicator (Fluo-8/AM) after the stimulation with respect to its baseline fluorescence intensity. FIG. 10B is a graph on which the largest value of the ΔF/F was plotted. […] The upper left panel “pre” depicts the human tauopathy iNs of day 16 before the addition of the reagent.
Next, AP-5 or CNQX was added to the culture system of human tauopathy iNs of day 16, and a cell survival rate at day 21 was calculated. The treatment with any of these agents tended to elevate the cell survival rate.

Assay [5] relates to human tauopathy iNs. As to the kind of experiment: Sucrose density-gradient fractionation, localization of tau oligomer and lipid raft. The following applies: tauopathy iNs treated with MbCD, then sucrose density-gradient fractionation, Western blot. The source says:
FIGS. 11A and 11B show results of preparing a culture supernatant and cell extracts from human tauopathy iNs or human normal iNs of day 14 and analyzing the amounts of human tau and a tau oligomer contained in the culture supernatant or the cell extracts by use of dot blot (FIG. 11A), and graphs on which their signals were quantified (FIG. 11B).
Lipid raft was biochemically isolated from human tauopathy iNs or human normal iNs and analyzed for its colocalization with a tau oligomer. Specifically, iNs were homogenized using a 29-gauge needle in a buffer containing 1% Lubrol and a protease inhibitor, and the cell homogenates were adjusted to a sucrose concentration of 40%. Then, a 0.7 ml aliquot thereof was fractionated by the sucrose density-gradient centrifugation method. The sucrose density gradient used was steps of 30% (1.4 ml), 27.5% (0.7 ml), 24% (1.4 ml), and 3% […] (5-ml tube), and the centrifugation conditions involved 50,000 rpm, 4° C., and 16 hours using Optima-MAX XP1 (Beckman Coulter, Inc.). After the centrifugation, a 0.7 ml aliquot was recovered from the upper layer to obtain 7 fractions (F1 to F7).
The lipid raft (GM1 ganglioside) was recovered into F2 and F3 of the human normal iNs and contained in F2 and F3 as well as in a small amount in F4 of human tauopathy iNs. The tau oligomer in the tauopathy iNs was contained mainly in F3 and also contained in F2 and F4. […]

The test system of assay [6] is human normal iNs. Nature of the assay: Spontaneous firing rate using a MEA system. The following applies: final concentration 1 μg/ml. On the procedure:
iPSCs for neural differentiation were inoculated to a culture dish for the exclusive use of MEA coated with poly-L-lysine and Matrigel, and induced to differentiate into neurons according to the [Approach 2]. At day 8 (mouse iNs) or day 12 (human iNs), extracellular electrical recordings were measured using a multielectrode array system (MEA60, Multi Channel Systems MCS GmbH). Data was obtained using MC_Rack software (extracellular electrical recordings). Offline Sorter ver. 3 (Plexon Inc.) was used in spike analysis. The spikes were sorted and then analyzed using Neuroexplorer software (Nex Technologies, LLC).
A culture supernatant of human tauopathy iNs or human normal iNs of days 12 to 14 was added to human normal iNs of day 20, and a spontaneous firing rate was measured using the MEA system of the [Approach 6]. […] By contrast, in the human normal iNs supplemented with the culture supernatant of the human normal iNs, no increase in spontaneous firing rate occurred substantially (FIGS. 12E and 12F).
The P301S tau monomer or the P301S tau oligomer was added (final concentration: 1 μg/ml) to the culture system of human normal iNs, and a spontaneous firing rate was measured using a MEA system ([Approach 6]). […]

In assay [7] the test system is human normal iNs. Nature of the assay: Cell survival rate of human normal iNs after addition of P301S tau monomer or oligomer. The following applies: for cell survival rate: two days later. On the procedure: FIGS. 13D and 13F show results of adding the tau monomer or the tau oligomer of FIG. 13A to a medium of human normal iNs of day 20 and measuring a spontaneous firing rate using a MEA system (FIG. 13D). The arrows represent the timing at which the tau monomer or the tau oligomer was added. FIG. 13E is a graph indicating the ratio of spike number between before and after the addition.
P301S mutant human tau produced as a recombinant protein was oligomerized by incubation in the presence of heparin. Specifically, 0.5 mg/ml tau protein was incubated at 37° C. for 16 hours in a 10 mM HEPES buffer (pH 7.4) containing 10 μM heparin (Sigma-Aldrich Co. LLC) and 100 mM NaCl (Sahara N. and Takashima A, EMBO J., 26: 5143-52, 2007). Then, the solution was treated at 70° C. for 15 minutes and then subjected to SDS-PAGE and silver staining. As is evident, the tau before the incubation in the presence of the heparin was mostly monomeric and dimeric, whereas the tau after the incubation included a large number of trimeric or larger associates (i.e., tau oligomers). Hereinafter, the tau before the incubation in the presence of the heparin is referred to as a “P301S tau monomer”, and the tau after the incubation is referred to as a “P301S tau oligomer”.
The P301S tau monomer or the P301S tau oligomer was added to the culture system of human normal iNs, followed by cell survival rate analysis two days later.

For the compound `N[C@H](CCCP(=O)(O)O)C(=O)O` [AP-5, D-(−)-2-amino-5-phosphononpentanoic acid], in assay [1], the “generation of excitatory postsynaptic current” value is “suppressed” and the “generation of action potential” value is given as “did not generate action potential”. In addition, in the assay with mouse tauopathy iNs [2], the “amount of a tau oligomer contained in the cell extracts” value is “no significant change” and the “amount of a tau oligomer contained in the culture supernatant” value is “approximately 50 % of the negative control”. The cell survival rate result in the assay with mouse tauopathy iNs [3] was “approximately 2 times the negative control”. Besides, the cell survival rate entry in the assay with human tauopathy iNs [4] (12.5 μM) is on record as “significantly elevated”. The cell survival rate entry in the assay with human tauopathy iNs [4] (25 μM) is reported as “significantly elevated”.

For the compound `N#Cc1cc2c(cc1[N+](=O)[O-])=NC(=O)C(=O)N=2` [CNQX, 6-cyano-7-nitroquinoxaline-2,3-dione], in assay [1], the “generation of excitatory postsynaptic current” value is on record as “suppressed” and the “generation of action potential” value is listed as “did not generate action potential”. In the assay on mouse tauopathy iNs [2], the “amount of a tau oligomer contained in the cell extracts” value is given as “approximately 70 % of the negative control” and the “amount of a tau oligomer contained in the culture supernatant” value is reported as “approximately 50 % of the negative control”. The cell survival rate entry in the assay on mouse tauopathy iNs [3] was “approximately 2 times the negative control”. Moreover, the cell survival rate result in the assay on human tauopathy iNs [4] (25 μM) was “significantly elevated”.

In the case of Methyl-β-cyclodextrin [MbCD], the “recovery of tau oligomer into lipid raft fractions” value with human tauopathy iNs [5] is reported as “not recovered into F2 to F4”.

With “P301S tau monomer: recombinant P301S mutant human tau before the incubation with heparin, mostly monomeric and dimeric”, the spontaneous firing rate entry in the assay with human normal iNs [6] is on record as “approximately 120 % of that before the addition”. Also, the cell survival rate result with human normal iNs [7] (1 μg/ml) is given as “not changed”.

Take “P301S tau oligomer: recombinant P301S mutant human tau after incubation in the presence of heparin; trimeric or larger associates”: in the assay on human normal iNs [6], the spontaneous firing rate entry was “approximately 290 % of that before the addition”. For the same compound, the cell survival rate result in the assay with human normal iNs [7] (0.1 μg/ml) and with human normal iNs [7] (1 μg/ml) was “significantly decreased” throughout. Besides, the “induction of cell death” value in the assay on human normal iNs [7] (100 ng/ml) is on record as “tended to induce cell death, albeit not significant”.

Source of the values: patent US20180209962A1, “SCREENING METHOD USING INDUCED NEURONS” (KYOTO UNIVERSITY, priority 2014, published 2018).
